“And” between values parts separate entries of the source, which are not always exact repeats. Equal values may be shown once.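 Briefly, cells in 96-well plates were exposed to five compound concentrations for 48 h, and endpoints were estimated by linear interpolation. GI50: concentration for 50% inhibition of growth. TGI: total growth inhibition.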 Bounds are passed on as bounds.

The test system of one assay is KM12 colon. As to the kind of experiment: DTP human tumour cell line panel, 48 h.
Turning to `O=C(Nc1ccc(OC(F)(F)Cl)cc1)c1cnc(N2CC[C@@H](O)C2)c(-c2ccn[nH]2)c1`, the GI50 (commonly the concentration giving 50% growth inhibition) was 9.26 µM and the TGI (as a rule, the concentration giving total growth inhibition) came to 24.2 µM.

`NC(N)=NCCCC(NCc1c2ccccc2nc2ccccc12)C(=O)O` (stereo not given): the TGI was above 100 µM.

`CC(=O)O[C@H]1CC2C(C3CC[C@H](C(C)CCC(=O)O)[C@]31C)[C@H](OC(C)=O)C[C@@H]1CC3(CC[C@]21C)OOC1(CCC(C)CC1)OO3` (stereo not given in full): the GI50 was 5.73 µM and 2.31 µM; the TGI is 19.4 µM and 6.98 µM.

Take `Cc1cnc(C(=O)NNc2nc3sc4c(c3c(=O)[nH]2)C(C)CCC4)cn1` (stereo not given): the GI50 is 0.93 µM and the total growth inhibition concentration (TGI) worked out at 95.6 µM.

`O=C1c2ccccc2C(=O)c2c(NC3CCCCC3)ccc(Nc3ccc(S(=O)(=O)O)cc3)c21` registered a TGI above 100 µM.

Regarding `CN(C)c1ccc(-c2cc(-c3ccc(Nc4nc(Nc5ccc(Cl)cc5)nc(Nc5ccc(Cl)cc5)n4)cc3)nc(N)c2C#N)cc1`, the GI50 is 10.3 µM and the TGI is above 100 µM.

With `COc1ccc(C(O)c2cc3c(N)c(C(=O)Nc4cccc5ccccc45)sc3nc2C)cc1` (stereo not given), the GI50 is 0.328 µM.

For `O=C(COc1ccc(/C=C2\Oc3ccccc3C2=O)cc1)Nc1nc2ccccc2s1`, the GI50 was 2.09 µM and the TGI is above 100 µM.

As for `Cc1cc(Br)c(NC(=O)c2c(-c3c(Cl)cccc3Cl)noc2C)c(Br)c1`, the GI50 is above 100 µM and the TGI is above 100 µM.

For `OCCCCC#Cc1ccccc1C#Cc1cccc(C(F)(F)F)c1`, the GI50 is 16.2 µM and the TGI was 31.3 µM.

With `CC(C)[C@@H]1CC[C@]2(CO2)[C@@H]2C(=O)OCC(C(=O)O)=C[C@H]21`, the GI50 is 0.344 µM and the total growth inhibition concentration (TGI) is 4.08 µM.

For the compound `Cn1c(=O)c2nc3sc4c(n3c2n(C)c1=O)C(=O)c1ccccc1C4=O`, the TGI is above 100 µM.

Consider `COc1ccc(/C=C2\CCC/C(=C\c3ccc(OC)c(OC)c3)C2=O)cc1OC`, for which the GI50 is 1.02 µM and the TGI was above 32.5 µM.

The test system of a further assay is MCF7 breast. As to the kind of experiment: DTP human tumour cell line panel, 48 h.
Take `O=C(Nc1ccc(OC(F)(F)Cl)cc1)c1cnc(N2CC[C@@H](O)C2)c(-c2ccn[nH]2)c1`: the GI50 was 10 µM and the TGI is 32.8 µM.

`NC(N)=NCCCC(NCc1c2ccccc2nc2ccccc12)C(=O)O` (stereo not given) showed a TGI above 100 µM.

Regarding `CC(=O)O[C@H]1CC2C(C3CC[C@H](C(C)CCC(=O)O)[C@]31C)[C@H](OC(C)=O)C[C@@H]1CC3(CC[C@]21C)OOC1(CCC(C)CC1)OO3` (stereo not given in full), the TGI was 30.4 µM and 38.1 µM.

For `Cc1cnc(C(=O)NNc2nc3sc4c(c3c(=O)[nH]2)C(C)CCC4)cn1` (stereo not given), the GI50 was 1.9 µM and the TGI was above 100 µM.

With `O=C1c2ccccc2C(=O)c2c(NC3CCCCC3)ccc(Nc3ccc(S(=O)(=O)O)cc3)c21`, the TGI stood at 86.8 µM.

`CN(C)c1ccc(-c2cc(-c3ccc(Nc4nc(Nc5ccc(Cl)cc5)nc(Nc5ccc(Cl)cc5)n4)cc3)nc(N)c2C#N)cc1`: the GI50 was 2.38 µM and the TGI is 47.7 µM.

As for `COc1ccc(C(O)c2cc3c(N)c(C(=O)Nc4cccc5ccccc45)sc3nc2C)cc1` (stereo not given), the GI50 was 0.324 µM and the TGI was above 90.9 µM.

Turning to `O=C(COc1ccc(/C=C2\Oc3ccccc3C2=O)cc1)Nc1nc2ccccc2s1`, the GI50 was 35.6 µM and the total growth inhibition concentration (TGI) is above 100 µM.

On to `Cc1cc(Br)c(NC(=O)c2c(-c3c(Cl)cccc3Cl)noc2C)c(Br)c1`, for which the GI50 is above 100 µM and the concentration for total growth inhibition (TGI) was above 100 µM.

In the case of `OCCCCC#Cc1ccccc1C#Cc1cccc(C(F)(F)F)c1`, the GI50 is 21.2 µM and the TGI came out at 42.7 µM.

Regarding `CC(C)[C@@H]1CC[C@]2(CO2)[C@@H]2C(=O)OCC(C(=O)O)=C[C@H]21`, the GI50 was 0.824 µM and the TGI was above 100 µM.

For `Cn1c(=O)c2nc3sc4c(n3c2n(C)c1=O)C(=O)c1ccccc1C4=O`, the TGI is above 62 µM.

As for `COc1ccc(/C=C2\CCC/C(=C\c3ccc(OC)c(OC)c3)C2=O)cc1OC`, the GI50 was 1.19 µM and the TGI is above 32.5 µM.

In another assay the test system is SNB-75 CNS. Kind of assay: DTP human tumour cell line panel, 48 h.
On to `O=C(Nc1ccc(OC(F)(F)Cl)cc1)c1cnc(N2CC[C@@H](O)C2)c(-c2ccn[nH]2)c1`, for which the GI50 is 12.7 µM and the TGI amounted to 26.5 µM.

As to `NC(N)=NCCCC(NCc1c2ccccc2nc2ccccc12)C(=O)O` (stereo not given), the TGI is above 100 µM.

The compound `CC(=O)O[C@H]1CC2C(C3CC[C@H](C(C)CCC(=O)O)[C@]31C)[C@H](OC(C)=O)C[C@@H]1CC3(CC[C@]21C)OOC1(CCC(C)CC1)OO3` (stereo not given in full) registered a TGI of 6.81 µM.

`Cc1cnc(C(=O)NNc2nc3sc4c(c3c(=O)[nH]2)C(C)CCC4)cn1` (stereo not given): the GI50 is 0.259 µM and the TGI came to 15.1 µM.

Turning to `O=C1c2ccccc2C(=O)c2c(NC3CCCCC3)ccc(Nc3ccc(S(=O)(=O)O)cc3)c21`, the TGI is above 100 µM.

On to `CN(C)c1ccc(-c2cc(-c3ccc(Nc4nc(Nc5ccc(Cl)cc5)nc(Nc5ccc(Cl)cc5)n4)cc3)nc(N)c2C#N)cc1`, for which the GI50 was 3.05 µM and the TGI was above 100 µM.

On to `COc1ccc(C(O)c2cc3c(N)c(C(=O)Nc4cccc5ccccc45)sc3nc2C)cc1` (stereo not given), for which the GI50 was 0.39 µM and the TGI is above 100 µM.

On to `O=C(COc1ccc(/C=C2\Oc3ccccc3C2=O)cc1)Nc1nc2ccccc2s1`, for which the GI50 is 1.99 µM and the TGI is above 45.5 µM.

Consider `Cc1cc(Br)c(NC(=O)c2c(-c3c(Cl)cccc3Cl)noc2C)c(Br)c1`, for which the GI50 was 47.2 µM and the TGI was above 100 µM.

Turning to `OCCCCC#Cc1ccccc1C#Cc1cccc(C(F)(F)F)c1`, the GI50 is 14.6 µM and the TGI was found to be 29.3 µM.

For `CC(C)[C@@H]1CC[C@]2(CO2)[C@@H]2C(=O)OCC(C(=O)O)=C[C@H]21`, the GI50 was 0.422 µM and the TGI is above 100 µM.

`Cn1c(=O)c2nc3sc4c(n3c2n(C)c1=O)C(=O)c1ccccc1C4=O`: the concentration for total growth inhibition (TGI) is 72.1 µM.

Consider `COc1ccc(/C=C2\CCC/C(=C\c3ccc(OC)c(OC)c3)C2=O)cc1OC`, for which the GI50 is 1.29 µM and the TGI stood at 12.8 µM.

The subject of a further assay is T-47D breast. Kind of assay: DTP human tumour cell line panel, 48 h.
`O=C(Nc1ccc(OC(F)(F)Cl)cc1)c1cnc(N2CC[C@@H](O)C2)c(-c2ccn[nH]2)c1`: the GI50 is 6.12 µM and the TGI amounted to 46.7 µM.

Take `NC(N)=NCCCC(NCc1c2ccccc2nc2ccccc12)C(=O)O` (stereo not given): the TGI is above 100 µM.

`CC(=O)O[C@H]1CC2C(C3CC[C@H](C(C)CCC(=O)O)[C@]31C)[C@H](OC(C)=O)C[C@@H]1CC3(CC[C@]21C)OOC1(CCC(C)CC1)OO3` (stereo not given in full): the TGI was 14.1 µM and 8.75 µM.

For `Cc1cnc(C(=O)NNc2nc3sc4c(c3c(=O)[nH]2)C(C)CCC4)cn1` (stereo not given), the GI50 is 2.75 µM and the TGI was above 100 µM.

`O=C1c2ccccc2C(=O)c2c(NC3CCCCC3)ccc(Nc3ccc(S(=O)(=O)O)cc3)c21`: the TGI was above 100 µM.

Take `CN(C)c1ccc(-c2cc(-c3ccc(Nc4nc(Nc5ccc(Cl)cc5)nc(Nc5ccc(Cl)cc5)n4)cc3)nc(N)c2C#N)cc1`: the GI50 is 7.59 µM and the TGI was above 100 µM.

As to `COc1ccc(C(O)c2cc3c(N)c(C(=O)Nc4cccc5ccccc45)sc3nc2C)cc1` (stereo not given), the GI50 was above 100 µM and the TGI was above 100 µM.

For the compound `O=C(COc1ccc(/C=C2\Oc3ccccc3C2=O)cc1)Nc1nc2ccccc2s1`, the GI50 was 41.4 µM and the TGI was above 100 µM.

Turning to `Cc1cc(Br)c(NC(=O)c2c(-c3c(Cl)cccc3Cl)noc2C)c(Br)c1`, the GI50 was above 100 µM and the TGI was above 100 µM.

On to `OCCCCC#Cc1ccccc1C#Cc1cccc(C(F)(F)F)c1`, for which the GI50 was 22 µM and the TGI is 44.5 µM.

For the compound `CC(C)[C@@H]1CC[C@]2(CO2)[C@@H]2C(=O)OCC(C(=O)O)=C[C@H]21`, the GI50 was 0.381 µM and the TGI is above 100 µM.

On to `Cn1c(=O)c2nc3sc4c(n3c2n(C)c1=O)C(=O)c1ccccc1C4=O`, for which the TGI was determined as 23.6 µM.

With `COc1ccc(/C=C2\CCC/C(=C\c3ccc(OC)c(OC)c3)C2=O)cc1OC`, the GI50 is 10.2 µM and the TGI is above 32.5 µM.

A further assay has as its system UO-31 renal. As to the kind of experiment: DTP human tumour cell line panel, 48 h.
For `O=C(Nc1ccc(OC(F)(F)Cl)cc1)c1cnc(N2CC[C@@H](O)C2)c(-c2ccn[nH]2)c1`, the GI50 was 11.9 µM and the TGI came out at 31 µM.

In turn, `NC(N)=NCCCC(NCc1c2ccccc2nc2ccccc12)C(=O)O` (stereo not given) yielded a TGI above 100 µM.

Consider `CC(=O)O[C@H]1CC2C(C3CC[C@H](C(C)CCC(=O)O)[C@]31C)[C@H](OC(C)=O)C[C@@H]1CC3(CC[C@]21C)OOC1(CCC(C)CC1)OO3` (stereo not given in full), for which the TGI was 7.91 µM and 3 µM.

In the case of `Cc1cnc(C(=O)NNc2nc3sc4c(c3c(=O)[nH]2)C(C)CCC4)cn1` (stereo not given), the GI50 is 0.414 µM and the TGI was 3.64 µM.

Consider `O=C1c2ccccc2C(=O)c2c(NC3CCCCC3)ccc(Nc3ccc(S(=O)(=O)O)cc3)c21`, for which the TGI is above 100 µM.

For `CN(C)c1ccc(-c2cc(-c3ccc(Nc4nc(Nc5ccc(Cl)cc5)nc(Nc5ccc(Cl)cc5)n4)cc3)nc(N)c2C#N)cc1`, the GI50 is 47.6 µM and the TGI is above 100 µM.

As for `COc1ccc(C(O)c2cc3c(N)c(C(=O)Nc4cccc5ccccc45)sc3nc2C)cc1` (stereo not given), the GI50 was 0.622 µM and the TGI was above 75.4 µM.

On to `O=C(COc1ccc(/C=C2\Oc3ccccc3C2=O)cc1)Nc1nc2ccccc2s1`, for which the GI50 is 13 µM and the TGI is above 57.6 µM.

Take `Cc1cc(Br)c(NC(=O)c2c(-c3c(Cl)cccc3Cl)noc2C)c(Br)c1`: the GI50 was above 100 µM and the TGI is above 100 µM.

For the compound `OCCCCC#Cc1ccccc1C#Cc1cccc(C(F)(F)F)c1`, the GI50 was 17.2 µM and the TGI was 31.6 µM.

For the compound `CC(C)[C@@H]1CC[C@]2(CO2)[C@@H]2C(=O)OCC(C(=O)O)=C[C@H]21`, the GI50 was 0.408 µM and the TGI is 15.9 µM.

As to `Cn1c(=O)c2nc3sc4c(n3c2n(C)c1=O)C(=O)c1ccccc1C4=O`, the TGI is above 76 µM.

Turning to `COc1ccc(/C=C2\CCC/C(=C\c3ccc(OC)c(OC)c3)C2=O)cc1OC`, the GI50 was 3.63 µM and the TGI is above 32.5 µM.

Source of the values: PubChem BioAssay (NCI).
